Data set [1] in a line: The equilibrium dissociation constant was measured experimentally for the compounds interaction with antithrombin. It is filed as ADME.
Data set [2] is described as follows: The second order rate constant for uncatalysed inhibition of factor Xa by antithrombin was determined for the compound at […].
The nature of data set [3]: delta f max at pH 7.4. Type of data set: ADME.
The nature of data set [4]: Catalysed acceleration of antithrombin inhibition of factor Xa (K-uncat = 120 +/- 10 M-1.s-1).
Data set [5] is described as follows: The equilibrium dissociation constant antithrombin interaction was determined at pH 7.4. It is filed as ADME.
Data set [6] can be described thus: delta f max at pH 6.0. It is filed as ADME.
Data set [7] in a line: Equilibrium constants and K activator was determined. Type of data set: ADME.

A word on the Kd: it is the equilibrium constant for the complex coming apart. Higher therefore signals lower affinity.

Molecules are shown by their SMILES.

As to `O=S(=O)(O)Oc1cc2c(c(OS(=O)(=O)O)c1)C[C@@H](OS(=O)(=O)O)[C@@H](c1ccc(OS(=O)(=O)O)c(OS(=O)(=O)O)c1)O2`, the affinity in data set [1], expressed as Kd, was 10.5 µM. In addition, the Kuncat in data set [2] amounted to 120 M⁻¹ s⁻¹.

Turning to `CO[C@H]1O[C@H](COS(=O)(=O)O)[C@@H](OC2O[C@H](C(=O)O)[C@@H](OC3O[C@H](COS(=O)(=O)O)[C@@H](O)[C@H](O)[C@H]3NS(=O)(=O)O)[C@H](O)[C@H]2O)[C@H](OS(=O)(=O)O)[C@H]1NS(=O)(=O)O` (stereo partly drawn) [HEPARIN TRISACCHARIDE DEF], the “Delta Fmax” value in data set [3] and in data set [6] was 34% in each case. Besides, in data set [4], the Fold_increase was found to be 320. Besides, the Kd is 66 µM in data set [5] and 2000 nM in data set [2]. The same compound had a K act in data set [7] of 45000 M⁻¹ s⁻¹.

The values are drawn from ChEMBL document CHEMBL1135885, “Designing small, nonsugar activators of antithrombin using hydropathic interaction analyses” (J Med Chem, 2002).
